In ChEMBL document CHEMBL5321254, “A method for tritiation of iboxamycin permits measurement of its ribosomal binding” (Bioorg Med Chem Lett, 2023):

What was measured:
Format in all cases: subcellular
[1] = target: Bacterial 70S ribosome; test: Binding affinity to Escherichia coli ribosomes assessed as apparent inhibition constant by scintillation counter analysis; settings: read-out: Ki(app)
[2] = target: Bacterial 70S ribosome (Bacteria) (UniProt P0A7V0+P60723+P0AG67+P0A7R5+P0A7R9+P0A7S3+P0A7S9+P0AG59+P0ADZ4+P0A7T3+P0AG63+P0A7T7+P0A7U3+P0A7U7+P68679+P0A7V3+P0A7V8+P0A7W1+P02358+P02359+P0A7W7+P0A7X3+P0A7J3+P0A7J7+P0AA10+P0ADY3+P02413+P0ADY7+P0AG44+P0C018+P0A7K6+P0A7L0+P0A7L3+P0AG48+P61175+P0ADZ0+P60624+P68919+P0A7L8+P0A7M2+P0A7M6+P60422+P0AG51+P0A7N1+P0A7M9+P0A7N4+P0A7N9+P0A7P5+P0A7Q1+Q2EEQ2+P0A7Q6+P60438+P62399+P0AG55+P0A7K2); test: Potency index, ratio of clindamycin Ki(app) to test compound Ki(app) for binding affinity to Escherichia coli ribosomes
[3] = target: Bacterial 70S ribosome; test: Binding affinity to Escherichia coli ribosomes assessed as apparent dissociation constant by scintillation counter analysis; settings: read-out: Kd(app)

Row | Ki [1] [nM] | Ratio Ki(app) [2] | Kd [3] [nM] | SMILES
1 | 41 | 70 | 34 | CS[C@H]1O[C@H]([C@H](NC(=O)[C@H]2NC[C@@H]3C[C@H](CC(C)C)CCO[C@H]32)[C@H](C)Cl)[C@H](O)[C@H](O)[C@H]1O
2 | 2700 | – | – | CCC[C@@H]1C[C@@H](C(=O)N[C@@H]([C@H]2O[C@H](SC)[C@H](O)[C@@H](O)[C@H]2O)[C@H](C)Cl)N(C)C1 [CLINDAMYCIN]
